Measured values published in patent US10317405B2, “Methods of detecting Akt3 and administering Ax1 inhibitor” (BERGENBIO ASA, priority 2012, dated 2019).

Columns and labels:
MCF10A cells [1] = experiment: Mesenchymal phenotype in 2D growth and invasive growth in 3D Matrigel of transduced MCF10A cells treated with Akt inhibitors; type: cell-based, human; details: inhibitor 10 μM, 12 hours
Protocol: (§1) MCF10A cells were cultured and transduced with retroviral constructs expressing myrAkt1, MyrAkt3 or Slug as described in FIGS. 1 and 3. The cells were treated with Akt inhibitors LY294002 (10 μM, Cell Signaling Technology, Cat. #9901) and Akt VIII (10 μM, Merck, Cat. #124018) for 12 hours as indicated. Cells were then either visualized at indicated magnification by phase-contrast microscopy, or seeded for invasive growth in 3D Matrigel as described in Example 3.

Akt = experiment: Immunoblot of Akt activation (pAkt) in transduced MCF10A cells treated with Akt inhibitor; type: cell-based, human; details: inhibitor 10 μM, 12 hours
Protocol: as §1
(§2) MCF10A cells were cultured and transduced with retroviral constructs expressing myrAkt1, MyrAkt3 or Slug as described in FIGS. 1 and 3. The cells were treated with Akt inhibitor as described in FIG. 6. SDS/PAGE, immunoblotting and antibodies as described in Examples 1 and 4.

MCF10A cells [2] = experiment: Immunoblot of EMT markers (N-cadherin, vimentin, E-cadherin) in transduced MCF10A cells treated with Akt inhibitor; type: cell-based, human; details: inhibitor 10 μM, 12 hours
Protocol: as §1, §2

Akt3 [3] = experiment: Quantification of nuclear Akt3 immunofluorescence in mammary epithelial cells (HMEC); type: cell-based, human; details: 600 nM BGB324 (Axl TKI), 1 uM imatinib (cKit TKI), versus vehicle (DMSO), *P<0.05
From the text: Culturing of MDA-MB-231 cells was as described in Example 3. Primary human mammary epithelial cells (HMEC) were isolated as described (Garbe J C, Pepin F, Pelissier F A, Sputova K, Fridriksdottir A J, Guo D E, Villadsen R, Park M, Petersen O W, Borowsky A D, Stampfer M R, Labarge M A. Accumulation of multipotent progenitors with a basal differentiation bias during aging of human mammary epithelia. Cancer Res. 2012 Jul. 15; 72(14):3687-701) Localization of Akt3 (anti-Akt3-FITC, top panels) in MDA-MB-231 and primary human mammary epithelial cells (HMEC) as in Example 17. Nucleus was stained by DAPI (lower panels). Bar: 50 micron

Akt3 [4] = experiment: SureFire assay detecting activated (phosphorylated) Akt3 in cells; type: cell-based; details: 10 nM insulin for 10 minutes
Protocol: A SureFire assay was used to specifically detect activated (phosphorylated) Akt3 in WM115, MCF7 and LNCaP cells. Briefly cells were lysated, and antibodies recognizing phosphorylated Akt (p473) and Akt3 were coupled to acceptor and donor beads as described by the manufacturer (PerkinElmer). Cells were either unstimulated or stimulated with 10 nM insulin for 10 minutes to activate Akt.

O=c1[nH]c2ccccc2n1C1CCN(Cc2ccc(-c3nc4cc5nc[nH]c5cc4nc3-c3ccccc3)cc2)CC1 [AKT VIII]
mesenchymal phenotype induced by Akt3 (MCF10A cells [1]; MCF10A cells expressing MyrAkt3): inhibit
mesenchymal/invasive phenotype induced by Slug in 2D and 3D growth (MCF10A cells [1]; MCF10A cells expressing Slug, 2D culture and 3D Matrigel): inhibit
Akt activation (pAkt) (Akt): fully inhibit
mesenchymal marker N-cadherin expression (MCF10A cells [2]): significant reduction
mesenchymal marker vimentin expression (MCF10A cells [2]): significant reduction
re-expression of the epithelial marker E-cadherin (MCF10A cells [2]): Neither inhibitor led to re-expression
reversal of the mesenchymal phenotype / inhibition of EMT (MCF10A cells [2]): partially reverse

Nc1nc(Nc2ccc3c(c2)CC[C@@H](N2CCCC2)CC3)nn1-c1cc2c(nn1)-c1ccccc1CCC2 [BGB324, 1-(6,7-dihydro-5H-benzo[6,7]cyclohepta[1,2-c]pyridazin-3-yl)-N3-((7-(S)-pyrrolidin-1-yl)-6,7,8,9-tetrahydro-5H-benzo[7]annulene-2-yl)-1H-1,2,4-triazole-3,5-diamine]
Akt3 nuclear localization (Akt3 [3]): inhibit

insulin: stimulus used to activate Akt in the SureFire assay
Akt3 activity (phosphorylation) signal (Akt3 [4]; LNCaP prostate cells): no signal
Akt3 activity (phosphorylation) signal (Akt3 [4]; MCF7 breast epithelial cells): no signal
Akt3 activity (phosphorylation) (Akt3 [4]; WM115 melanoma cells): significantly induce
